Where only a bound is given, the exact number is not on record here.

As a reminder, the IC50 is the concentration at which inhibition is half-maximal.

For one experiment, the system named is NCIH929.1 cells. Put plainly: Cell viability assay for Table 2 (CellTiter-Glo 2.0, ATP quantification, 96 hr). In kind it is cell-based. The conditions noted are these: 96 h, NCIH929.1 cell viability, 96 hr, top concentration 1 μM, 14 points half log titration; read-out: IC50. The source says: Cell Viability Assay for Table 2
CellTiter-Glo® 2.0 Assay was purchased from Promega (Madison, Wis., USA). NCIH929.1 cell line was purchased from ATCC (Manassas, Va., USA). Cell culture flasks and 384-well microplates were acquired from VWR (Radnor, Pa., USA).
On the technique in general: In ATP-based viability assays light output follows the ATP content of the culture.
In the case of `O=C1CCC(N2C(=O)c3cccc4c(Cc5cnn(C6CCN(C(=O)C78C9C%10C%11C9C7C%11C%108)CC6)c5)ccc2c34)C(=O)N1` (stereo not shown) [Compound 54, 3-(6-((1-(1-(cubane-1-carbonyl)piperidin-4-yl)-1H-pyrazol-4-yl)methyl)-2-oxobenzo[cd]indol-1(2H)-yl)piperidine-2,6-dione], the concentration for half-maximal inhibition (IC50) is under 1 nM.
Still for that read-out and setting: the figure for `CN(C(=O)N1CCC(n2cc(Cc3ccc4c5c(cccc35)C(=O)N4C3CCC(=O)NC3=O)cn2)CC1)C1CC1` (stereo not shown) [Compound 261, N-cyclopropyl-4-(4-((1-(2,6-dioxopiperidin-3-yl)-2-oxo-1,2-dihydrobenzo[cd]indol-6-yl)methyl)-1H-pyrazol-1-yl)-N-methylpiperidine-1-carboxamide] is under 1 nM; for `CC1(C(=O)N2CCN(C3(c4ccc(Cc5ccc6c7c(cccc57)C(=O)N6C5CCC(=O)NC5=O)cc4)CC3)CC2)CCC1` (stereo not shown) [Compound 263, 3-[6-(4-{1-[4-(1-Methyl-cyclobutanecarbonyl)-piperazin-1-yl]-cyclopropyl}-benzyl)-2-oxo-2H-benzo[cd]indol-1-yl]-piperidine-2,6-dione] it is under 1 nM.
With `O=C1CCC(N2C(=O)c3cccc4c(Cc5cnn(C6(CO)CCN(C(=O)C7(C(F)(F)F)CC7)CC6)c5)ccc2c34)C(=O)N1` (stereo not shown) [Compound 195, 3-[6-[[1-[4-(hydroxymethyl)-1-[1-(trifluoromethyl)cyclopropanecarbonyl]-4-piperidyl]pyrazol-4-yl]methyl]-2-oxo-benzo[cd]indol-1-yl]piperidine-2,6-dione], the half-maximal inhibitory concentration (IC50) is under 1 nM.
Same read-out and setting: to `N#Cc1ccc(N2CCN(Cc3ccn(Cc4ccc5c6c(cccc46)C(=O)N5C4CCC(=O)NC4=O)n3)CC2)c(F)c1` (stereo not shown) [Compound 208, 4-(4-((1-((1-(2,6-dioxopiperidin-3-yl)-2-oxo-1,2-dihydrobenzo[cd]indol-6-yl)methyl)-1-H-pyrazol-3-yl)methyl)piperazin-1-yl)-3-fluorobenzonitrile] belongs under 1 nM; to `CC(C)(C#N)CN1CCC(n2cc(Cc3ccc4c5c(cccc35)C(=O)N4C3CCC(=O)NC3=O)cn2)CC1` (stereo not shown) [Compound 61, 3-(4-(4-((1-(2,6-dioxopiperidin-3-yl)-2-oxo-1,2-dihydrobenzo[cd]indol-6-yl)methyl)-1H-pyrazol-1-yl)piperidin-1-yl)-2,2-dimethylpropanenitrile], under 1 nM.
Same read-out and setting: to `O=C1CC[C@H](N2C(=O)c3cccc4c(Cc5ccc(CN6CCC7(CCCO7)CC6)cc5)ccc2c34)C(=O)N1` (single isomer, unassigned) [Compound 216, 3-[6-[[4-(1-oxa-8-azaspiro[4.5]decan-8-ylmethyl)phenyl]methyl]-2-oxo-benzo[cd]indol-1-yl]piperidine-2,6-dione] belongs under 1 nM.
Still for that read-out and setting: the figure for `O=C1CCC(N2C(=O)c3cccc4c(Cc5cnn(C6CCCCC6)c5)ccc2c34)C(=O)N1` (stereo not shown) [Compound 162, 3-[6-[(1-cyclohexylpyrazol-4-yl)methyl]-2-oxo-benzo[cd]indol-1-yl]piperidine-2,6-dione] is under 1 nM; for `CC1(CN2CCC(c3ccc(Cc4ccc5c6c(cccc46)C(=O)N5C4CCC(=O)NC4=O)cc3)CC2)CCC1` (stereo not shown) [Compound 170, 3-[6-[[4-[1-[(1-methylcyclobutyl)methyl]-4-piperidyl]phenyl]methyl]-2-oxo-benzo[cd]indol-1-yl]piperidine-2,6-dione] it is under 1 nM; for `CC(C)(F)C(=O)N1CCC(C)(n2cc(Cc3ccc4c5c(cccc35)C(=O)N4C3CCC(=O)NC3=O)cn2)CC1` (stereo not shown) [Compound 96, 3-(6-((1-(1-(2-fluoro-2-methylpropanoyl)-4-methylpiperidin-4-yl)-1H-pyrazol-4-yl)methyl)-2-oxobenzo[cd]indol-1(2H)-yl)piperidine-2,6-dione] it is under 1 nM.
`O=C1CCC(N2C(=O)c3cccc4c(Cc5ccc(CN6CCN(S(=O)(=O)CC(F)(F)F)CC6)cc5)ccc2c34)C(=O)N1` (single isomer, unassigned) [Compound 159, 3-(2-Oxo-6-{4-[4-(2,2,2-trifluoro-ethanesulfonyl)-piperazin-1-ylmethyl]-benzyl}-2H-benzo[cd]indol-1-yl)-piperidine-2,6-dione]: the 50% inhibitory concentration (IC50) is under 1 nM.
Turning to `CC1(CN2CCC(n3cc(Cc4ccc5c6c(cccc46)C(=O)N5C4CCC(=O)NC4=O)cn3)CC2)CCC1` (single isomer, unassigned) [Compound 236, 3-[6-[[1-[1-[(1-methylcyclobutyl)methyl]-4-piperidyl]pyrazol-4-yl]methyl]-2-oxo-benzo[cd]indol-1-yl]piperidine-2,6-dione], the IC50 is under 1 nM.
Consider `N#Cc1ccc(N2CCN(C3(c4ccc(Cc5ccc6c7c(cccc57)C(=O)N6C5CCC(=O)NC5=O)cc4)CC3)CC2)c(F)c1` (stereo not shown) [Compound 262, 4-[4-(1-{4-[1-(2,6-Dioxo-piperidin-3-yl)-2-oxo-1,2-dihydro-benzo[cd]indol-6-ylmethyl]-phenyl}-cyclopropyl)-piperazin-1-yl]-3-fluoro-benzonitrile], for which the concentration for half-maximal inhibition (IC50) is under 1 nM.
Same read-out and setting: to `CN(c1cnn(C2CCN(C(=O)OC(C)(C)C)CC2)c1)c1ccc2c3c(cccc13)C(=O)N2C1CCC(=O)NC1=O` (stereo not shown) [Compound 252, tert-butyl 4-[4-[[1-(2,6-dioxo-3-piperidyl)-2-oxo-benzo[cd]indol-6-yl]-methyl-amino]pyrazol-1-yl]piperidine-1-carboxylate] belongs under 100 nM.
Still for that read-out and setting: the figure for `CC(C)(C)C(=O)N1CCC(C)(n2cc(Cc3ccc4c5c(cccc35)C(=O)N4C3CCC(=O)NC3=O)cn2)CC1` (stereo not shown) [Compound 93] is under 1 nM.
On to `N#CC1(C(=O)N2CCC(n3cc(Cc4ccc5c6c(cccc46)C(=O)N5C4CCC(=O)NC4=O)cn3)CC2)CCC1` (stereo not shown) [Compound 39, 1-(4-(4-((1-(2,6-dioxopiperidin-3-yl)-2-oxo-1,2-dihydrobenzo[cd]indol-6-yl)methyl)-1H-pyrazol-1-yl)piperidine-1-carbonyl)cyclobutane-1-carbonitrile], for which the IC50 is under 1 nM.
Still for that read-out and setting: the figure for `CC1(C(=O)N2CCC(n3cc(C(N)c4ccc5c6c(cccc46)C(=O)N5C4CCC(=O)NC4=O)cn3)CC2)CCC1` (stereo not shown) [Compound 153, 3-(6-(amino(1-(1-(1-methylcyclobutane-1-carbonyl)piperidin-4-yl)-1H-pyrazol-4-yl)methyl)-2-oxobenzo[cd]indol-1(2H)-yl)piperidine-2,6-dione] is under 1 nM; for `O=C1CCC(N2C(=O)c3cccc4c(Cc5ccc(CN6CCN(c7ccccc7F)CC67CC7)cc5)ccc2c34)C(=O)N1` (stereo not shown) [Compound 135, 3-[6-[[4-[[7-(2-fluorophenyl)-4,7-diazaspiro[2.5]octan-4-yl]methyl]phenyl]methyl]-2-oxo-benzo[cd]indol-1-yl]piperidine-2,6-dione] it is under 1 nM; for `CC1(C(=O)N2CCC(n3cc(Cc4ccc5c6c(cccc46)C(=O)N5C4CCC(=O)NC4=O)cn3)CC2)CCC1` (single isomer, unassigned) [Compound 67, 3-[6-[[1-[1-(1-methylcyclobutanecarbonyl)-4-piperidyl]pyrazol-4-yl]methyl]-2-oxo-benzo[cd]indol-1-yl]piperidine-2,6-dione] it is under 1 nM.
On to `Cc1cccc(C)c1C(=O)N1CCC(n2cc(Cc3ccc4c5c(cccc35)C(=O)N4C3CCC(=O)NC3=O)cn2)CC1` (stereo not shown) [Compound 45, 3-(6-((1-(1-(2,6-dimethylbenzoyl)piperidin-4-yl)-1H-pyrazol-4-yl)methyl)-2-oxobenzo[cd]indol-1(2H)-yl)piperidine-2,6-dione], for which the concentration for half-maximal inhibition (IC50) is under 1 nM.
The same measure, in the same setting: the figure for `O=C1CCC(N2C(=O)c3cccc4c(Cc5ccc(CC6CCN(Cc7ccccc7)CC6)cc5)ccc2c34)C(=O)N1` (stereo not shown) [Compound 152, 3-(6-(4-((1-benzylpiperidin-4-yl)methyl)benzyl)-2-oxobenzo[cd]indol-1(2H)-yl)piperidine-2,6-dione] is under 1 nM; for `O=C1CCC(N2C(=O)c3cccc4c(Cc5cnn(C6CCN(C(=O)C7(C(F)(F)F)CC7)CC6)c5)ccc2c34)C(=O)N1` (stereo not shown) [Compound 52, 3-(2-oxo-6-((1-(1-(1-(trifluoromethyl)cyclopropane-1-carbonyl)piperidin-4-yl)-1H-pyrazol-4-yl)methyl)benzo[cd]indol-1(2H)-yl)piperidine-2,6-dione] it is under 1 nM.

Still in this experiment, the particulars now being: NCIH929.1 cell viability, 96 hr, top concentration 1 μM, 14 points half log titration; read-out: IC50.
Turning to `N#Cc1ccc(N2CCN(Cc3ccc(Cc4ccc5c6c(cccc46)C(=O)N5C4CCC(=O)NC4=O)cc3)CC2)c(F)c1` (single isomer, unassigned) [Compound 185, 4-(4-(4-((1-(2,6-dioxopiperidin-3-yl)-2-oxo-1,2-dihydrobenzo[cd]indol-6-yl)methyl)benzyl)piperazin-1-yl)-3-fluorobenzonitrile], the IC50 was under 1 nM.
On the same count and under the same terms, to `CC1(CN2CCC(n3cc(Cc4ccc5c6c(cccc46)C(=O)N5C4CCC(=O)NC4=O)cn3)C(F)(F)C2)CCC1` (single isomer, unassigned) [Compound 187, 3-[6-[[1-[3,3-difluoro-1-[(1-methylcyclobutyl)methyl]-4-piperidyl]pyrazol-4-yl]methyl]-2-oxo-benzo[cd]indol-1-yl]piperidine-2,6-dione] belongs under 1 nM.
Still for that read-out and setting: the figure for `CC(C)(C)OC1CCC(n2cc(Cc3ccc4c5c(cccc35)C(=O)N4C3CCC(=O)NC3=O)cn2)CC1` (stereo not shown) [Compound 213, 3-[6-[[1-(4-tert-butoxycyclohexyl)pyrazol-4-yl]methyl]-2-oxo-benzo[cd]indol-1-yl]piperidine-2,6-dione] is under 1 nM.

Source of the values: patent US20230082430A1 (C4 Therapeutics, Inc., priority 2019, published 2023).
